The values that follow come from publication PMC4143111, “Photoswitchable precision glycooligomers and their lectin binding” (Beilstein Journal of Organic Chemistry, 2014).

The nature of data set [1]: Photoisomerization, composition at photostationary state by UPLC. The note with it: irradiation at 360 nm. The data set is classed as physicochemical. How it is done: The photochromic behavior of the newly synthesized AZO-glycooligomers was investigated by UV–vis absorption spectroscopy and ultraperformance liquid chromatography (UPLC). Aqueous solutions of Azo-Gal(1,3)-3 and Azo-Gal(1,3,5)-5 (the compounds were dissolved in the buffer used for the SPR measurements, see Supporting Information File 1 for the details) were irradiated at λ = 360 nm to induce the E → Z isomerization. […] The composition at the photostationary state (PSS) was analyzed by UPLC using integration of the UV signal at the wavelengths of the isosbestic points.

The target in data set [2] is T1, PA-IL (Pseudomonas aeruginosa, UniProt Q05097). Nature of the data set: SPR inhibition/competition assay of PA-IL binding to β-D-galactose-polymer chip. How it is done:
In order to determine the binding affinity of the precision glycooligomers to PA-IL, surface plasmon resonance (SPR) experiments were performed. At first, an inhibition/competition assay was carried out. The SPR chip was modified with a β-D-galactose-polymer and α-D-mannose-polymer as negative control (see Supporting Information File 1). In a first experiment, binding of PA-IL (1 µM) to the chip was determined and set as 100%. In a second set of experiments, binding of preincubated mixtures of PA-IL (1 µM) and glycooligomers at serial dilutions (400 µM to 0.1 µM) were measured. […] Plotting this concentration dependent decrease in binding against […], sigmoidal curves were obtained and fitted with the Hill equation. The inhibitory concentration at 50% binding (IC50) was derived for the different glycooligomers (Table 2).
SPR PA-IL inhibition/competition studies:
A sensor chip SA coated with streptavidin was conditioned with three consecutive injections of 100 µl 1 M NaCl and 50 mM NaOH in a flow rate of 100 µL/min. Then, biotinylated β-D-galactose-PAA (0.1 nM in HBS-EP buffer) was immobilized on flow cell 2 with HBS-EP buffer in a flow rate of 5 µL/min.
Biotinylated α-D-mannose-PAA with the same concentration was immobilized as reference on flow cell 1. Binding analyses were carried out with running buffer (HEPES 10 mM, NaCl 150 mM, CaCl2 10 mM, pH 7.4.) at a flow rate of 20 µl/min. The PA-IL binding of the glycooligomers AZO-Gal(1,3)-3, AZO-Gal(1,3,5)-5, EDS-Gal(1,3)-3, EDS-Gal(1,3,5)-5 and AZO-Man(1,3,5)-5 (as control) was examined.
1 µM Pa-IL was incubated with the specific substance at final concentrations of 400 µM, 100 µM, 50 µM, 25 µM, 10 µM, 1 µM and 0.1 µM, in running buffer for 60 minutes at room temperature.
45 µL of each sample were injected over both lanes whereas the binding signal on the reference cell (α-D-mannose-PAA) was subtracted from the β-D-galactose-PAA flow cell during the binding measurement. Each binding cycle consisted of an injection phase for 80 s followed by a 100 s dissociation phase. The chip was regenerated after each run with 100 mM D-galactose in running buffer. The response values were calculated by subtraction of the report point at the beginning of the sample injections (0 s) from the report point at the end of the dissociation phase ([…]). The binding signal obtained by the 1 µM Pa-IL solution in running buffer without inhibitor was set to 100 % binding. This sample was measured 2 times before and 2 times after each measuring cycle. The binding signals of the specific inhibitor was referred to Pa-IL and calculated for relative PA-Il binding in % of PA-IL. Each data point (concentration) represents the mean value (± SEM) of two measurements. The obtained data points for each concentration were plotted with Origin 8.5G and fit with Hill1 equation, allowing for the determination of IC50 values (the concentration of inhibitor that results from 50 % binding of PA-IL binding to β-D-galactose-PAA on the sensor chip).
The characteristic sigmoidal shape (see Figure S4) was fitted with the Hill equation to obtain the IC50 […]
where Start is the value at 100% binding and equals 100, End is the value where no binding is observed anymore and equals 0, x corresponds to the concentration and n describes the cooperativity. IC50 values describe the inhibitory potential of a ligand for a specific receptor which is no direct measure for the affinity of a ligand but can be related to the affinity of the ligand in a competitive experiment e.g. as we have performed with PA-IL and against β-D-galactose.

Data set [3] addresses T1, PA-IL. Put plainly: SPR direct binding assay, glycooligomers immobilized on chip, PA-IL flown over. The note with it: steady-state affinity model. The source says: In order to approach practical applications of a photoswitchable device that could modulate its binding affinity towards PA-IL lectins on demand, we were intrigued in the ability of our light-responsive systems to work when immobilized on a surface. To this end we attached the photoswitchable precision glycooligomers directly to the SPR chip and performed a second set of lectin binding experiments using SPR and measuring PA-IL binding on the chip. The glycooligomers were covalently linked to the chip via their terminal amine group and the simultaneous activation of the carboxyl-functionalized chip surface as N-hydroxysuccinimide (NHS) ester (see Supporting Information File 1). Successful functionalization was monitored by SPR. Photoswitching of the glycooligomers was realized either ex situ prior to surface functionalization or in situ by direct irradiation of the functionalized chip. The equilibrium constant KD was obtained by fitting the obtained binding values at the turning point between binding- and dissociation-curve with a steady-state affinity model (Biacore T100 Evaluation Software 2.0.3). In agreement with the previously determined IC50 values, all KD values are in the µM range.
Figure S5: Inhibition curves of controls, Azo-Man(1,3,5)-5 and β-methyl galactose.
SPR PA-IL direct binding studies
For direct binding studies, glycooligomers E-Azo-Gal(1,3)-3, E-Azo-Gal(1,3,5)-5, Azo-Gal(1,3)-3-PSS and Azo-Gal(1,3,5)-5-PSS were immobilized on Biacore CM5 sensor chips. Two PSS were additionally generated by irradiation of the corresponding E structure immobilized on the Biacore sensor chip with light at 360 nm (see irradiation section above for details). Immobilizations were performed by flowing a solution of 2 mM glycoligand for 5 minutes with 10 µL per minute over one flow cell, after activation of it with 0.4 M […] in water and 0.1 M NHS in water. Remaining active ester groups were capped by injection of 1 M ethanolamine. HBS-P (0.01 M HEPES pH 7.4, 0.15 M NaCl, 0.005% v/v Surfactant P20 in water) was used as running buffer. A second flow cell was immobilized as blank reference cell, by flowing 1 M ethanolamine over the cell after activation with 0.4 M EDS in water and 0.1 M NHS in water. Serial dilutions of PA-IL (25 µM, 10 µM, 5 µM, 1 µM, 0.1 µM and 0 µM) were then flown over the sensor chip at 25 °C with Hepes running buffer (HEPES 10 mM, NaCl 150 mM, CaCl2 10 mM, pH 7.4.). Binding of lectin was evaluated with Biacore T100 evaluation software, determining KD affinity constants by employing a steady state affinity model.
(1 picture or pasted object on this page, not shown here)

Where [4] appears, read: no isomer state given (control structures), PA-IL 1 µM.

SMILES strings stand for the structures.

T1 sequence (Q05097 whole entry): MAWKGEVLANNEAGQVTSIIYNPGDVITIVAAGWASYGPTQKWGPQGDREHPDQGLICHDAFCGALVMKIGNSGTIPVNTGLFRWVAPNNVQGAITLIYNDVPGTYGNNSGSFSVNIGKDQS

As for `CC(=O)NCCN(CCNC(=O)CCC(=O)NCc1ccc(/N=N/c2ccc(C(=O)NCCN(CCNC(=O)CCC(=O)NCCN)C(=O)CCc3cn(CCO[C@@H]4O[C@H](CO)[C@H](O)[C@H](O)[C@H]4O)nn3)cc2)cc1)C(=O)CCc1cn(CCO[C@@H]2O[C@H](CO)[C@H](O)[C@H](O)[C@H]2O)nn1` [AZO-Gal(1,3)-3], in data set [1] (buffer solution), the “Z-azobenzene in the PSS solution” value is 78%. The 50% inhibitory concentration (IC50) on PA-IL [2] (IC50, E-isomer, PA-IL 1 µM preincubated with glycooligomer 400 µM to 0.1 µM) is 5.7 ± 1.7 µM; at PA-IL [2] (IC50, PSS: photostationary state @ 360 nm, PA-IL 1 µM preincubated with glycooligomer 400 µM to 0.1 µM), 9.4 ± 0.1 µM. The Kd came to 1.7 ± 0.1 µM at PA-IL [3] (KD, E-form immobilized on chip, 25 °C); 2.4 ± 0.1 µM on PA-IL [3] (KD, PSS @ 360 nm, ex situ irradiation before immobilization); 1.8 ± 0.1 µM on PA-IL [3] (KD, PSS @ 360 nm, irradiation on chip).
For the compound `CC(=O)NCCN(CCNC(=O)CCC(=O)NCc1ccc(/N=N/c2ccc(C(=O)NCCN(CCNC(=O)CCC(=O)NCc3ccc(/N=N/c4ccc(C(=O)NCCN(CCNC(=O)CCC(=O)NCCN)C(=O)CCc5cn(CCO[C@@H]6O[C@H](CO)[C@H](O)[C@H](O)[C@H]6O)nn5)cc4)cc3)C(=O)CCc3cn(CCO[C@@H]4O[C@H](CO)[C@H](O)[C@H](O)[C@H]4O)nn3)cc2)cc1)C(=O)CCc1cn(CCO[C@@H]2O[C@H](CO)[C@H](O)[C@H](O)[C@H]2O)nn1` [AZO-Gal(1,3,5)-5], the “E,E-isomer that did not isomerize at PSS” value in data set [1] (UPLC) is given as 10%. In addition, the “E,Z isomer at PSS” value in data set [1] (UPLC) stood at 10%. For the same compound, in data set [1] (UPLC), the “Z,E isomer at PSS” value was determined as 10%. The “Z,Z-isomer at PSS” value in data set [1] (UPLC) is 70%. Moreover, the “total amount of Z-azobenzenes in the PSS mixture” value in data set [1] (buffer solution, from isomer composition) is reported as 80%. For the same compound, the 50% inhibitory concentration (IC50) at PA-IL [2] (E-isomer, PA-IL 1 µM preincubated with glycooligomer 400 µM to 0.1 µM) was determined as 3.4 ± 0.4 µM; at PA-IL [2] (PSS: photostationary state @ 360 nm, PA-IL 1 µM preincubated with glycooligomer 400 µM to 0.1 µM), 4.1 ± 1.3 µM. The Kd at PA-IL [3] (E-form immobilized on chip, 25 °C) worked out at 3.3 ± 0.3 µM; at PA-IL [3] (PSS @ 360 nm, ex situ irradiation before immobilization) it was 7.4 ± 0.9 µM; on PA-IL [3] (PSS @ 360 nm, irradiation on chip), 3.2 ± 0.9 µM.
As to `CC(=O)NCCN(CCNC(=O)CCC(=O)NCc1ccc(/N=N/c2ccc(C(=O)NCCN(CCNC(=O)CCC(=O)NCc3ccc(/N=N/c4ccc(C(=O)NCCN(CCNC(=O)CCC(=O)NCCN)C(=O)CCc5cn(CCO[C@H]6O[C@H](CO)[C@@H](O)[C@H](O)[C@@H]6O)nn5)cc4)cc3)C(=O)CCc3cn(CCO[C@H]4O[C@H](CO)[C@@H](O)[C@H](O)[C@@H]4O)nn3)cc2)cc1)C(=O)CCc1cn(CCO[C@H]2O[C@H](CO)[C@@H](O)[C@H](O)[C@@H]2O)nn1` [AZO-Man(1,3,5)-5], the “binding to PA-IL (in words)” value on PA-IL [2] (SPR inhibition/competition assay) is listed as “does not show any binding”. In addition, the IC50 entry at PA-IL [2] (setting [4]) is recorded as “n.b.^b”.
Regarding `CC(=O)NCCN(CCNC(=O)CCC(=O)NCCOCCOCCNC(=O)CCC(=O)NCCN(CCNC(=O)CCC(=O)NCCN)C(=O)CCc1cn(CCO[C@@H]2O[C@H](CO)[C@H](O)[C@H](O)[C@H]2O)nn1)C(=O)CCc1cn(CCO[C@@H]2O[C@H](CO)[C@H](O)[C@H](O)[C@H]2O)nn1` [EDS-Gal(1,3)-3], the concentration for half-maximal inhibition (IC50) at PA-IL [2] (IC50, no isomer state given (control structures), PA-IL 1 µM) stood at 3.2 ± 0.2 µM.
The compound `CC(=O)NCCN(CCNC(=O)CCC(=O)NCCOCCOCCNC(=O)CCC(=O)NCCN(CCNC(=O)CCC(=O)NCCOCCOCCNC(=O)CCC(=O)NCCN(CCNC(=O)CCC(=O)NCCN)C(=O)CCc1cn(CCO[C@@H]2O[C@H](CO)[C@H](O)[C@H](O)[C@H]2O)nn1)C(=O)CCc1cn(CCO[C@@H]2O[C@H](CO)[C@H](O)[C@H](O)[C@H]2O)nn1)C(=O)CCc1cn(CCO[C@@H]2O[C@H](CO)[C@H](O)[C@H](O)[C@H]2O)nn1` [EDS-Gal(1,3,5)-5] yielded an IC50 at PA-IL [2] (setting [4]) of 2 ± 0.6 µM.
